This is an account of results in patent US8202910B2 (Sequella, Inc., priority 2006, dated 2012).

For orientation: IC50 means the concentration at which inhibition is half-maximal.

Values after ≈ are worked out from the molar mass of the structure shown. Values joined by “and” are separate entries in the source; they are usually repeats but may differ in a detail not shown here. Identical values can stand only once. Like-named read-outs stand apart in the source and are kept apart here. A value given as a limit tells only on which side of the number the result lay.

For data set [1], the system named is RIF^R M. tuberculosis isolate 2482. In words: microbe, parasite or virus in culture. The settings on record: for MIC (BACTEC): Strain 2482; for concentration to which the strain was susceptible: strain 2482. In kind it is cell-based.
In data set [2] the test system is RIF^R M. tuberculosis isolate 3185. As to the kind of experiment: microbe, parasite or virus in culture. The settings on record: for concentration to which the strain was susceptible: strain 3185. Format: cell-based.
For data set [3], the system named is M. tuberculosis H37Rv. In words: Standard chronic mouse model of tuberculosis, CFU in lung. The settings on record: RIF (20 mg/kg) by itself, 4 week therapy. Format: in vivo, C57BL/6 female mice.
Data set [4] deals with M. tuberculosis H37Rv. As to the kind of experiment: MIC by BACTEC 460. In kind it is cell-based, Mycobacterium tuberculosis. The settings on record: for MIC: Mycobacterium tuberculosis, H37RV, read-out: MIC (BACTEC).
Data set [5] deals with M. tuberculosis H37Rv (Pasteur). As to the kind of experiment: Rapid in vivo model of TB, body weight of infected mice. Conditions: single drug alone (SQ109 10 mg/kg; RIF 2 mg/kg), by the 3 wk. Set-up: species or system C3H female mice.
Another data set relates to wild type of M.tb. As to the kind of experiment: MIC, secondary screening, wild type. The settings on record: Mycobacterium tuberculosis, WT. Format: cell-based, Mycobacterium tuberculosis.
Data set [6] relates to M. tuberculosis H37Rv. In words: In vivo efficacy, mice infected i.v. with M. tuberculosis, CFU in spleen and lungs. Set-up: species or system C57BL/6 mice. The settings on record: for activity in vivo, spleen and lung: 25 mg/kg, 5×10^6 CFU, 4 weeks.
A further data set concerns cells. As to the kind of experiment: LD50 for selectivity index (Table 10). In kind it is cell-based, Mycobacterium tuberculosis. The source says: Table 10 lists MIC and LD50 data for selected compounds. […] Table 11 lists MIC data for purified substituted ethylene diamines in comparison to ethambutol (EMB).
Data set [7] deals with H37Rv strain of Mycobacterium tuberculosis. As to the kind of experiment: microbe, parasite or virus in culture. In kind it is cell-based.
The subject of data set [8] is monkey kidney cells (Vero). As to the kind of experiment: In vitro toxicity, Vero cells. Format: cell-based. Conditions: Primates. The procedure:
Twenty six compounds (including 37, 59 and 109) were tested in an in vitro model of toxicity using monkey kidney cells (Vero) and human cervical cancer cells (HeLa) using methods well known to those skilled in the art. The data from this toxicity testing and the MIC data were used to calculate a selectivity index (SI), the ratio of IC50:MIC (Table 15). Selectivity Indexes were ranging from 1.76 to 16.67.

The mark [9] stands for this setting: Mycobacterium tuberculosis, read-out: MIC (BACTEC).
The mark [10] stands for this setting: EMB, RL241, Cmpd#59 as 2HCl salt, Cmpd#109 as 2CF3COOH salt, read-out: MIC.
[11] abbreviates: Mycobacterium tuberculosis, H37RV, Table 15, read-out: MIC.
Where [12] appears, read: Mycobacterium tuberculosis, H37RV, read-out: MIC.

Take `CO[C@H]1/C=C/O[C@@]2(C)Oc3c(C)c(O)c4c(O)c(c(/C=N/N5CCN(C)CC5)c(O)c4c3C2=O)NC(=O)/C(C)=C\C=C\[C@H](C)[C@H](O)[C@@H](C)[C@@H](O)[C@@H](C)[C@H](OC(C)=O)[C@@H]1C` [RIF, Rifampicin]: the MIC in data set [1] (setting [9]) was greater than 100 µg/mL; in [2] (setting [9]), 24 µg/mL (≈ 29.2 µM); in the data set on M. tuberculosis H37Rv [4] it was 0.2 µg/mL (≈ 0.243 µM). In addition, the “MIC (BACTEC)” value in [1] (listed as Rifampicin) was greater than 100 µg/mL; in data set [1] (listed as rifampicin), greater than 100 µg/mL; in data set [2] (isolate 3185), 24 µg/mL (≈ 29.2 µM); against M. tuberculosis H37Rv [4] (H37Rv), 0.17 µg/mL (≈ 0.207 µM). Further, in the data set on M. tuberculosis H37Rv [3], the CFU in lung was found to be 5.8 log10. The average weight in data set [5] turned out to be 19.7 g.

`CC1(C)C2CCC(CNCCNCC(c3ccccc3)c3ccccc3)[C@@H]1C2` (stereo partly drawn) [RL 241]: the MIC in the data set with wild type of M.tb (value in brackets, read-out: MIC (or uM)) came out at 3.34 µM; in the data set with wild type of M.tb (setting [10]), 1.5 µg/mL.

Consider `CCC1CCCCN1CCNC/C=C(\C)CCC=C(C)C` (stereo not drawn) [Compound 111, N-[2-(N′-Geranyl)aminoethyl]-2-ethylpiperidine], for which the “anti-tuberculosis activity compared with EMB” value in the data set with M. tuberculosis H37Rv [6] (10 mg/kg, B6 mice, 5×10^5 CFU, chemotherapy from day 20) is reported as “comparable to that of EMB at 100 mg/kg”. Besides, the “activity in vivo, spleen and lung” value in the data set with M. tuberculosis H37Rv [6] was “active in vivo in both spleen and lung”. Moreover, the “SI (Selectivity Index)” value with cells (LD50 : MIC) is 5.632. Also, the “LD50” value with cells (concentration at which 50% of the cells are killed) was 44 µM; in the data set on cells (from uM and MW), 18.128 µg/mL. Moreover, the “MIC” value in data set [7] is 7.813 µM and 7.8 µM; in [7] (Mycobacterium tuberculosis, H37RV, Table 10, from uM and MW, read-out: MIC), 3.22 µg/mL; in data set [7] (Mycobacterium tuberculosis, H37RV, Table 10, read-out: MIC), 7.81 µM; in data set [7] (setting [11]) it was 7.81 µM; in data set [7] (setting [12]), 7.81 µM. The molecule further showed an IC50 in data set [8] of 45 µM.

Consider `NNC(=O)c1ccncc1` [INH, Isoniazid], for which the “concentration to which the strain was susceptible” value in data set [1] and in data set [2] was 0.1 mg/L each time. Moreover, in the data set with M. tuberculosis H37Rv [6] (INH 25 mg/kg), the “activity in spleen and lung, rank among drugs” value was “the most active drug in both spleen and lung”. Also, in the data set with M. tuberculosis H37Rv [6] (during 4-6 weeks of chemotherapy), the “decrease of load of bacteria in organs” value is on record as 2-3 logs. Also, the MIC in data set [7] (setting [12]) was determined as 0.91 µM; in the data set on M. tuberculosis H37Rv [4] it was 0.025 µg/mL (≈ 0.182 µM).

Consider `CC1(C)CC2CC(C)(CN2CCNC[C@@H]2CCC3C[C@@H]2C3(C)C)C1` [MP 116], for which, in the data set with wild type of M.tb (setting [10]), the MIC amounted to 6.25 µg/mL.

For `[H]/N=C(/N)N[C@H]1[C@H](O)[C@@H](O)[C@H](O[C@@H]2O[C@@H](C)[C@](O)(C=O)[C@H]2O[C@@H]2O[C@@H](CO)[C@H](O)[C@@H](O)[C@@H]2NC)[C@@H](N/C(N)=N\[H])[C@@H]1O` [SM, Streptomycin], the “concentration to which the strain was susceptible” value in data set [1] and in [2] was 2 mg/L in each case. Also, the MIC in the data set with M. tuberculosis H37Rv [4] was found to be 0.25 µg/mL (≈ 0.43 µM).

Consider `C[C@@H]1C2C[C@@H](C[C@H]1NCCNC[C@@H]1CCC3C[C@@H]1C3(C)C)C2(C)C` [MP 117], for which the MIC in the data set on wild type of M.tb (setting [10]) was 6.25 µg/mL.

In the case of `C1CCCC(NCCNC2C3CC4CC(C3)CC2C4)CCC1` (stereo not drawn) [Compound 58, N-(Cyclooctyl)-N′-(2-adamantyl)ethane-1,2-diamine], in the data set on M. tuberculosis H37Rv [6], the “activity in vivo, spleen and lung” value was “active in vivo in both spleen and lung”. Besides, the MIC in [7] (setting [11]) was determined as 12.5 µM. Further, it took 82 µM to reach half-maximal inhibition in data set [8] (IC50).
